“And” between values parts separate entries of the source, which are not always exact repeats. Identical values can stand only once. Like-named read-outs stand apart in the source and are kept apart here.
Columns and labels:
[1] = Table 13 Comparative Studies; cited from earlier work
human LINE-1 = test: Human LINE-1 retrotransposition assay (dual luciferase pYX017 reporter, HeLa cells, Table 11); type: cell-based
Description: Assays were performed as described in Xie et al., 2011^151 with several modifications. The reporter assay was performed in 96 well white Optical bottom plates. 6000 HeLa cells were seeded in each well 24 hours prior transfection and compound treatment. All compounds were resuspended in DMSO. Stock solution concentrations varied from 50 mM to 1.25 mM depending of the solubility of the compound. Serial dilutions (1:3) were prepared in DMSO. Ten different concentrations of each compound were tested in triplicate. Medium containing different concentrations of the compounds were prepared by adding 2 μL of the compound dilution to 1 mL of the culture medium. The final concentration of DMSO in the medium was 0.2%. FuGENE® HD transfection reagent (Promega) was used to transfect the plasmid pYX016 into the cells. The transfection mix was prepared in OpiMEM (Thermo Fisher) using a reagent to DNA ratio of 3.5:1 according to manufacturer's instructions. Culture medium was removed from the cells and discarded. The transfection mix (5 μL) was mixed with the compound containing medium (100 μL/well) and this was added onto the cells of each well. Cells were incubated for 48H at 37° C./5% CO2. Luciferase reporter activity was quantified with the Dual-Luciferase® Reporter Assay System (Promega) according to manufacturer's instructions for multiwell plates with the following modification: Cells were lysed directly on the multiwell plate with 30 μL of the passive lysis buffer (PLB) for 20 min at room temperature, with gentle shaking to ensure complete cell lysis (instead of 20 μL of PLB for 15 min). Firefly and Renilla luciferase signals were measured using a SpectraMax i3x Multi-Mode Microplate Reader. […] Relative L1 activity was calculated as Firefly/Renilla *10,000. […] The experiment was performed twice, independently. […] Because the human construct yields a lower signal, compounds were incubated with cells for 72 hours instead of 48 hours, and cells were seeded at a density of 2000/well instead of 6000/well. In addition, the transfection reagent to DNA ratio was 2:1 instead of 3.5:1.

[2] = system: L1, p16, IFN-I and SASP gene expression; test: RT-qPCR of L1, p16, IFN-I and SASP genes in mouse tissues after drug in drinking water; type: in vivo; details: for IFNA Individual Foldchanges / IL6 Individual Foldchanges / IRF7 Individual Foldchanges / L1 Individual Foldchanges / MMP3 Individual Foldchanges / OAS1 Individual Foldchanges / PAI Individual Foldchanges / p16 Individual Foldchanges: one animal per line, listed as 3TC; for IFNA Age-group Foldchanges / IL6 Age-group Foldchanges / IRF7 Age-group Foldchanges / L1 Age-group Foldchanges / MMP3 Age-group Foldchanges / OAS1 Age-group Foldchanges / PAI Age-group Foldchanges / p16 Age-group Foldchanges: relative to 05 mo-WT
Description: C57BL/6J mice of both sexes were obtained from the NIA Aged Rodent Colonies^61 at 5 and 18 months of age. The 5-month old animals were sacrificed after a short (1 week) acclimatization period, a variety of tissues were harvested, snap frozen in LN2 and stored at −80° C. The 18-month old animals were housed until they reached a desired age. Mice were housed in a specific pathogen-free AAALAC-certified barrier facility. Cages, bedding (Sani-chip hardwood bedding) and food (Purina Lab Chow 5010) were sterilized by autoclaving. Food and water (also sterilized) were provided ad libitum. A light-dark cycle of 12 hours was used (7 AM On, 7 PM Off). Temperature was maintained at 70° F., and humidity at 50%. All animals were observed daily and weighed once per week. In a pilot experiment, three cohorts of 10 animals each were treated with 3TC dissolved in drinking water (1.5 mg/ml, 2.0 mg/ml, 2.5 mg/ml) continuously from 18 months until sacrifice at 24 months. The fourth (control) cohort was provided with the same water without drug. […] Once during the experiment (at 20 months of age) the animals were subjected to a single tail bleed of approximately 70 μL. […] They were then assigned randomly to two cohorts by a technician that was blinded to the appearance or other characteristics of the animals. One cohort was treated for 2 weeks with 2 mg/mL of 3TC in drinking water, and the other (control) cohort with same water without drug, administered in the same manner. At the end of the treatment period all animals were sacrificed and harvested for tissues as described above. All the animals in both cohorts were all included in all subsequent analyses. The experiment was performed on separate occasions with male and female animals.
Reverse transcription qPCR (RT-qPCR) of RNA was performed using the SYBR Green system (Applied Biosystems). Polyadenylated RNA was used in all experiments assessing transcription of L1 elements, and total RNA was used for all other genes. Total RNA was harvested using the Trizol reagent (Invitrogen). Poly(A) RNA was isolated from total RNA using the NEBNext Poly(A) mRNA Magnetic Isolation Module (New England Biolabs). 1 μg of total RNA, or 10 ng of poly(A) RNA, were reverse-transcribed into cDNA in 50 μL reactions using the TaqMan kit (Applied Biosystems). To assess strand-specific transcription, the random primers in the RT reaction were substituted with a strand-specific primer to the target RNA. 1 μL of each RT reaction was used in subsequent qPCR reactions. […] The arithmetic mean of Gapdh and two additional controls (Hsp90 and GusB) was used for normalization of RT-qPCR experiments with murine tissues, with the exception of liver that was normalized to Hsp90 and GusB. For measuring L1 transcription, poly(A) RNA samples were exhaustively digested with RNase-free DNase (Qiagen) prior to the synthesis of cDNA6. Effectiveness of the DNase digestion was assessed using controls that omitted the RT enzyme.

[3] = 3TC concentration in mouse plasma; type: in vivo; details: both sexes, C57BL/6J, oral, mice, 2 mg/mL in drinking water cohort, tail bleed at 20 months of age
Description: C57BL/6J mice of both sexes were obtained from the NIA Aged Rodent Colonies^61 at 5 and 18 months of age. The 5-month old animals were sacrificed after a short (1 week) acclimatization period, a variety of tissues were harvested, snap frozen in LN2 and stored at −80° C. The 18-month old animals were housed until they reached a desired age. Mice were housed in a specific pathogen-free AAALAC-certified barrier facility. Cages, bedding (Sani-chip hardwood bedding) and food (Purina Lab Chow 5010) were sterilized by autoclaving. Food and water (also sterilized) were provided ad libitum. A light-dark cycle of 12 hours was used (7 AM On, 7 PM Off). Temperature was maintained at 70° F., and humidity at 50%. All animals were observed daily and weighed once per week. In a pilot experiment, three cohorts of 10 animals each were treated with 3TC dissolved in drinking water (1.5 mg/ml, 2.0 mg/ml, 2.5 mg/ml) continuously from 18 months until sacrifice at 24 months. The fourth (control) cohort was provided with the same water without drug. […] Once during the experiment (at 20 months of age) the animals were subjected to a single tail bleed of approximately 70 μL. The collected plasma was shipped to the University of North Carolina CFAR Clinical Pharmacology and Analytical Chemistry Core for analysis of 3TC. For the 2 mg/mL cohort the concentration of 3TC in plasma averaged 7.2 μM. […]

## Nc1nc(=O)n([C@@H]2CS[C@H](CO)O2)cc1F [Emtricitabine]
[1]
  huCSF/Plasma: 0.35

## Nc1ccn([C@@H]2CS[C@H](CO)O2)c(=O)n1 [Lamivudine]
Human LINE-1; pYX017, 72 H post-transfection, read-out: Human L1 activity inhibition IC50, Exp. 1
  IC50: 793 nM
Human LINE-1; pYX017, 72 H post-transfection, read-out: Human L1 activity inhibition IC50, Exp. 2
  IC50: 867 nM
Human LINE-1; pYX017, 72 H, n = 2, read-out: Human L1 activity inhibition IC50, Average
  IC50: 830 nM
Human LINE-1; read-out: human L1 inhibition IC50
  IC50: > 800 nM
[2]; 05 mo mice + 3TC
  IFNA Individual Foldchanges: 1.821 and 2.748 and 2.909 and 0.645 and 0.465 and 0.346
  IL6 Individual Foldchanges: 1.455 and 0.924 and 5.604 and 1.622 and 1.920 and 0.751
  IRF7 Individual Foldchanges: 1.040 and 1.153 and 1.132 and 0.684 and 0.565 and 0.960
  L1 Individual Foldchanges: 1.458 and 1.464 and 0.484 and 1.829 and 2.537 and 0.747
  MMP3 Individual Foldchanges: 1.587 and 0.601 and 1.946 and 0.711 and 0.635 and 0.476
  OAS1 Individual Foldchanges: 2.867 and 1.521 and 6.031 and 1.317 and 0.037 and 1.603
  PAI Individual Foldchanges: 2.291 and 0.842 and 2.212 and 1.683 and 0.180 and 0.380
  p16 Individual Foldchanges: 2.881 and 0.457 and 0.957 and 0.270 and 0.104 and 0.541
  IFNA Age-group Foldchanges: 1.489
  IL6 Age-group Foldchanges: 2.046
  IRF7 Age-group Foldchanges: 0.922
  L1 Age-group Foldchanges: 1.420
  MMP3 Age-group Foldchanges: 0.993
  OAS1 Age-group Foldchanges: 2.229
  PAI Age-group Foldchanges: 1.265
  p16 Age-group Foldchanges: 0.868
[2]; 26 mo mice + 3TC
  IFNA Individual Foldchanges: 10.115 and 2.941 and 4.156 and 1.283 and 1.601 and 8.335 and 19.836 and 3.982 and 6.531 and 8.332 and 5.514 and 6.321
  IL6 Individual Foldchanges: 1.116 and 1.553 and 2.194 and 0.686 and 1.395 and 1.291 and 8.067 and 0.654 and 2.119 and 3.177 and 1.148 and 4.866
  IRF7 Individual Foldchanges: 0.540 and 0.506 and 0.498 and 0.424 and 0.954 and 3.302 and 0.993 and 1.155 and 0.950 and 1.866
  L1 Individual Foldchanges: 2.819 and 2.160 and 2.053 and 1.491 and 6.524 and 2.863 and 7.191 and 5.433 and 3.817 and 4.409 and 5.864 and 2.745
  MMP3 Individual Foldchanges: 1.044 and 0.972 and 1.618 and 1.650 and 1.033 and 1.166 and 4.484 and 0.374 and 1.543 and 3.656 and 1.964 and 1.637
  OAS1 Individual Foldchanges: 1.658 and 0.643 and 0.055 and 0.482 and 1.094 and 0.695 and 7.091 and 3.841 and 1.945 and 0.636 and 0.565 and 1.469
  PAI Individual Foldchanges: 1.034 and 1.056 and 2.696 and 0.493 and 1.562 and 1.675 and 2.347 and 0.529 and 0.747 and 8.508 and 6.112 and 7.313
  p16 Individual Foldchanges: 2.290 and 3.653 and 1.731 and 1.168 and 0.844 and 1.243 and 3.690 and 2.458 and 2.135 and 4.053 and 1.969 and 1.326
  IFNA Age-group Foldchanges: 6.579
  IL6 Age-group Foldchanges: 2.355
  IRF7 Age-group Foldchanges: 1.076
  L1 Age-group Foldchanges: 3.947
  MMP3 Age-group Foldchanges: 1.762
  OAS1 Age-group Foldchanges: 1.681
  PAI Age-group Foldchanges: 2.839
  p16 Age-group Foldchanges: 2.213
[3]
  concentration at 2 months of continuous dosing (sampled at 20 months of age): 7.2 µM
